Experimental data: patent publication US20230346809A1, “USE OF CANNABIDIVARIN IN THE TREATMENT OF SEIZURES ASSOCIATED WITH RARE EPILEPSY SYNDROMES RELATED TO GENETIC ABNORMALITIES” (GW Research Limited, priority 2020, published 2023)
“Also recorded” adds a separate entry of the source.

Assays:
[1] = tested on: patients with Dravet and Lennox-Gastaut syndrome; conditions: purified pharmaceutical formulation of CBD; three trials; cited from earlier work
[2] = tested on: seizures associated with Rett syndrome; test: Open label, phase I trial of CBDV in patients diagnosed with Rett syndrome (caregiver seizure diary); type: in vivo, human; design: Mean seizure frequency reduction: concentration or dose not given beside the values; conditions: for Mean seizure frequency reduction: versus baseline
From the text: Example 1 below describes the use of a botanically derived purified CBDV in an open label, phase I trial to investigate the clinical efficacy and safety of purified pharmaceutical cannabidivarin formulation (CBDV) in the treatment of patients diagnosed with Rett syndrome.
Subjects were required to be on one or more AEDs at stable doses for a minimum of 4 weeks prior to baseline. Subjects had to have been diagnosed with intractable epilepsy: failed adequate trial of two, or more, standard anticonvulsants, and four or more quantifiable seizures less than 8 weeks prior to screening, and two or more quantifiable seizures in prospective baseline phase.
Patients were administered botanically derived purified CBDV in a 50 mg/mL sesame oil-based solution which was titrated to an initial dose of 2.5 milligrams per kilogram per day (mg/kg/day). Doses were then increased to a goal of 10 mg/kg/day.
There were five patients in this study, and each received CBDV for various durations of time. Modifications were made to concomitant AEDs as per clinical indication.
Seizure frequency, intensity, and duration were recorded by caregivers in a diary during a baseline period of at least 28 days. Changes in seizure frequency relative to baseline were calculated after at least 2 weeks and at defined timepoints of treatment.
Patients may be defined as responders if they had more than 50% reduction in seizure frequency compared to baseline. The percent change of seizure frequency for the end of the treatment period was calculated as follows: […]

[3] = tested on: mouse model of Rett syndrome; conditions: cited from earlier work
[4] = tested on: pilocarpine-induced seizures; conditions: CBDV alone; Hill et al. 2012; cited from earlier work
[5] = tested on: methyl-6, 7-dimethoxy-4-ethyl-beta-carboline-3-carboxylate (DMCM) model; conditions: postnatal day 10 animals; cited from earlier work
[6] = tested on: maximal electroshock model; conditions: postnatal day 10 animals; cited from earlier work
[7] = tested on: MeCP2 KO mouse model of Rett Syndrome; conditions: WO 2017/178807; cited from earlier work
[8] = Patient 1, total over 14 months of CBDV, baseline 0
[9] = Patient 2, total over 11 months of CBDV, baseline 0
[10] = Patient 3, total over 12 months of CBDV, baseline 0
[11] = Patient 4, total over 12.5 months of CBDV, baseline 0
[12] = Patient 5, total over 11 months of CBDV, baseline 0

C=C(C)[C@@H]1CCC(C)=C[C@H]1c1c(O)cc(CCCCC)cc1O [CBD, Cannabidiol]
Efficacy in randomized control trials [1]: showed efficacy

C=C(C)[C@@H]1CCC(C)=C[C@H]1c1c(O)cc(CCC)cc1O [CBDV, cannabidivarin]
Mean seizure frequency reduction ([2]; Patient 1, 14 months of CBDV): 52.5% | Total seizure frequency ([2]; Patient 1, 14 months of CBDV, baseline 32.0/month): 15.2/month | Focal seizures with impairment, Non-motor: seizure count [2, 8]: 2 /14 months | Generalised seizures, Motor other: seizure count [2, 8]: 8 /14 months | Generalised seizures, Motor tonic-clonic: seizure count [2, 8]: 0 /14 months | Non-motor: seizure count [2, 8]: 0 /14 months | Other: seizure count [2, 8]: 1 /14 months | Unknown onset, Motor other: seizure count [2, 8]: 3 /14 months | Unknown onset, Motor tonic-clonic: seizure count [2, 8]: 7 /14 months | Focal seizures with impairment, Motor: seizure count ([2]; Patient 1, total over 14 months of CBDV, baseline 32): 192 /14 months | Mean seizure frequency reduction ([2]; Patient 2, 11 months of CBDV): 79.4% | Total seizure frequency ([2]; Patient 2, 11 months of CBDV, baseline 35.0/month): 7.2/month | Focal seizures with impairment, Motor: seizure count [2, 9]: 0 /11 months | Generalised seizures, Motor other: seizure count [2, 9]: 0 /11 months | Generalised seizures, Motor tonic-clonic: seizure count [2, 9]: 0 /11 months | Non-motor: seizure count [2, 9]: 0 /11 months | Unknown onset, Motor other: seizure count [2, 9]: 0 /11 months | Unknown onset, Motor tonic-clonic: seizure count [2, 9]: 0 /11 months | Other: seizure count ([2]; Patient 2, total over 11 months of CBDV, baseline 3): 18 /11 months | Focal seizures with impairment, Non-motor: seizure count ([2]; Patient 2, total over 11 months of CBDV, baseline 32): 61 /11 months | Mean seizure frequency reduction ([2]; Patient 3, 12 months of CBDV): 90.0% | Total seizure frequency ([2]; Patient 3, 12 months of CBDV, baseline 6.0/month): 0.6/month | Focal seizures with impairment, Non-motor: seizure count [2, 10]: 0 /12 months | Generalised seizures, Motor other: seizure count [2, 10]: 0 /12 months | Non-motor: seizure count [2, 10]: 0 /12 months | Other: seizure count [2, 10]: 0 /12 months | Unknown onset, Motor other: seizure count [2, 10]: 0 /12 months | Unknown onset, Motor tonic-clonic: seizure count [2, 10]: 0 /12 months | Focal seizures with impairment, Motor: seizure count ([2]; Patient 3, total over 12 months of CBDV, baseline 1): 3 /12 months | Generalised seizures, Motor tonic-clonic: seizure count ([2]; Patient 3, total over 12 months of CBDV, baseline 5): 4 /12 months | Mean seizure frequency reduction ([2]; Patient 4, 12.5 months of CBDV): 5.7% | Total seizure frequency ([2]; Patient 4, 12.5 months of CBDV, baseline 7.0/month): 6.6/month | Focal seizures with impairment, Non-motor: seizure count [2, 11]: 0 /12.5 months | Generalised seizures, Motor tonic-clonic: seizure count [2, 11]: 0 /12.5 months | Non-motor: seizure count [2, 11]: 0 /12.5 months | Other: seizure count [2, 11]: 6 /12.5 months | Unknown onset, Motor other: seizure count [2, 11]: 0 /12.5 months | Unknown onset, Motor tonic-clonic: seizure count [2, 11]: 0 /12.5 months | Focal seizures with impairment, Motor: seizure count ([2]; Patient 4, total over 12.5 months of CBDV, baseline 3): 73 /12.5 months | Generalised seizures, Motor other: seizure count ([2]; Patient 4, total over 12.5 months of CBDV, baseline 4): 4 /12.5 months | Mean seizure frequency reduction ([2]; Patient 5, 11 months of CBDV): 98.1% | Total seizure frequency ([2]; Patient 5, 11 months of CBDV, baseline 371.0/month): 7.2/month | Focal seizures with impairment, Motor: seizure count [2, 12]: 0 /11 months | Focal seizures with impairment, Non-motor: seizure count [2, 12]: 0 /11 months | Non-motor: seizure count [2, 12]: 6 /11 months | Other: seizure count [2, 12]: 0 /11 months | Unknown onset, Motor tonic-clonic: seizure count [2, 12]: 0 /11 months | Generalised seizures, Motor other: seizure count ([2]; Patient 5, total over 11 months of CBDV, baseline 18): 18 /11 months | Generalised seizures, Motor tonic-clonic: seizure count ([2]; Patient 5, total over 11 months of CBDV, baseline 25): 38 /11 months | Unknown onset, Motor other: seizure count ([2]; Patient 5, total over 11 months of CBDV, baseline 328): 17 /11 months | Decrease of seizure frequency rates, maximum ([2]; across listed seizure types): up to 98% | Reduction in seizures over the period of treatment, range over patients ([2]; all five patients, 11-14 months of CBDV): 5.7-98.1% | Patients with more than 50% reduction in seizure frequency compared to baseline (responders) ([2]; five patients): four of the five patients | Patients with more than 75% reduction in seizure frequency compared to baseline ([2]; five patients): three | Effect on number of seizures associated with Rett syndrome ([2]; five patients, open label): significantly reduce the number of seizures | Effect on frequency of seizure types ([2]; focal motor/non-motor with impairment, generalised motor/non-motor, unknown onset motor, non-motor and other types): effective in reducing the frequency of all seizure types; also recorded: significant reduction in specific seizure types | Patients with focal seizures with impairment who experienced a reduction in their seizures ([2]; four patients (patient 1-4) suffered from focal seizures with impairment): three (patients 1-3) of these patients experienced a reduction | Patients with generalised seizures who experienced a reduction in these seizures ([2]; three patients (patients 3-5) suffered from generalised seizures): all three experienced a reduction | Behavioural alterations ([3]; reference 2): rescue the behavioural alterations | Memory deficits ([3]; reference 3): rescued memory deficits | Neurological and motor defects ([3]; reference 3): delayed the appearance of neurological and motor defects | Effect on pilocarpine-induced seizures [4]: did not have any effect | Seizure suppression [5]: did not suppress seizures | Seizure suppression [6]: did not suppress seizures | Bodyweight and survival [7]: reduce the decrease in bodyweight and survival | General condition and symptoms of mobility and breathing [7]: improved general condition and symptoms of mobility and breathing
